Among the data in patent US20260137703A1, “2-AMINO-PYRIDO[2,3-D]PYRIMIDIN-7(8H)-ONE AND 7-AMINO-1-PYRIMIDO[4,5-D]PYRIMIDIN-2(1 H)-ONE DERIVATIVES AS EGFR INHIBITORS FOR THE TREATMENT OF CANCER” (Cancer Research Technology Limited, priority 2022, published 2026) are IC50 values, retold here.

One may read the IC50 as the midpoint of a concentration-inhibition curve.

The target in experiment [1] is T1, Phospho-EGFR (Tyr1068) in H1975 cells (Homo sapiens, UniProt P00533, L858R/T790M).
T1 construct: host or cells: H1975
T1 sequence (P00533 25-1210 T790M/L858R): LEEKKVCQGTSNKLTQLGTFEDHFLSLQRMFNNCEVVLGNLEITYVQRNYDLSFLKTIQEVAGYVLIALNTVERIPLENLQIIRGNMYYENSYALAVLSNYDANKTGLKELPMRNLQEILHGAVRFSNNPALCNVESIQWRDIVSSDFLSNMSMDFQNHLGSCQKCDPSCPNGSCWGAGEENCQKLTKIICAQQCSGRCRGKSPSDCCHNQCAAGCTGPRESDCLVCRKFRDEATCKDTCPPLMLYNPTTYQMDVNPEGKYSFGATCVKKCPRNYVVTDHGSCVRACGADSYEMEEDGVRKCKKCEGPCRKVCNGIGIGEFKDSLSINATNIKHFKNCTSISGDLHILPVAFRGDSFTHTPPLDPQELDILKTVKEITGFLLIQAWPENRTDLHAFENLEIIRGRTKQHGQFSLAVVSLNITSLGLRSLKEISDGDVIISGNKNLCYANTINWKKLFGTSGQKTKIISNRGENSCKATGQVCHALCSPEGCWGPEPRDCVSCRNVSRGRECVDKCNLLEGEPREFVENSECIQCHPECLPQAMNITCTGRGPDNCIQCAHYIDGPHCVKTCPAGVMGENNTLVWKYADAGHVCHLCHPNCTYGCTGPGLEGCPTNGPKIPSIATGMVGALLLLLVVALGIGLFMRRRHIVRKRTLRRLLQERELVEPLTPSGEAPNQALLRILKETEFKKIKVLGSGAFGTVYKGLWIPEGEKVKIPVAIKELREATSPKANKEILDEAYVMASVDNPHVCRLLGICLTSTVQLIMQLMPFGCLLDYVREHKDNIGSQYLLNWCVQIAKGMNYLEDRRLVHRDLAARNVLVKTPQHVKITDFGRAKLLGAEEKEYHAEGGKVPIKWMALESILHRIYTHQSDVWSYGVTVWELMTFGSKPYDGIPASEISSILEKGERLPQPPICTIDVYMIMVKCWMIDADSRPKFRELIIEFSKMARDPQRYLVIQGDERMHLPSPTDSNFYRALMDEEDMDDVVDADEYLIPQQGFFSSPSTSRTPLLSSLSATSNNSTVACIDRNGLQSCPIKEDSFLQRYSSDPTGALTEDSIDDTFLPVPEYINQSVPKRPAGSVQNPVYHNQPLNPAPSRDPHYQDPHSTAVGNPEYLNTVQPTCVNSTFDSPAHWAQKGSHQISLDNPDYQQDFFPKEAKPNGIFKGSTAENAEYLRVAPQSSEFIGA
The experiment can be described thus: HTRF pEGFR/total EGFR in H1975 cells. The note with it: ratio pEGFR/total EGFR, compound 3 hours. Format: cell-based. Summed up:
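H1975 cells (EGFR L858R/T790M) treated 3 h with compound in 0.1% DMSO, in duplicate, 24 h after plating. Lysates assayed by HTRF for pEGFR (Tyr1068) and total EGFR at 665/620 nm; values are pEGFR/total EGFR ratio as percent of 0 μM control.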

For experiment [2], the target named is T2, Phospho-EGFR (Tyr1068) in H1975 C797S cells (CRISPR-edited EGFR C797S) (Homo sapiens, UniProt P00533, C797S/L858R/T790M).
T2 construct: host or cells: H1975 C797S (CRISPR-edited)
T2 sequence (P00533 25-1210 T790M/C797S/L858R): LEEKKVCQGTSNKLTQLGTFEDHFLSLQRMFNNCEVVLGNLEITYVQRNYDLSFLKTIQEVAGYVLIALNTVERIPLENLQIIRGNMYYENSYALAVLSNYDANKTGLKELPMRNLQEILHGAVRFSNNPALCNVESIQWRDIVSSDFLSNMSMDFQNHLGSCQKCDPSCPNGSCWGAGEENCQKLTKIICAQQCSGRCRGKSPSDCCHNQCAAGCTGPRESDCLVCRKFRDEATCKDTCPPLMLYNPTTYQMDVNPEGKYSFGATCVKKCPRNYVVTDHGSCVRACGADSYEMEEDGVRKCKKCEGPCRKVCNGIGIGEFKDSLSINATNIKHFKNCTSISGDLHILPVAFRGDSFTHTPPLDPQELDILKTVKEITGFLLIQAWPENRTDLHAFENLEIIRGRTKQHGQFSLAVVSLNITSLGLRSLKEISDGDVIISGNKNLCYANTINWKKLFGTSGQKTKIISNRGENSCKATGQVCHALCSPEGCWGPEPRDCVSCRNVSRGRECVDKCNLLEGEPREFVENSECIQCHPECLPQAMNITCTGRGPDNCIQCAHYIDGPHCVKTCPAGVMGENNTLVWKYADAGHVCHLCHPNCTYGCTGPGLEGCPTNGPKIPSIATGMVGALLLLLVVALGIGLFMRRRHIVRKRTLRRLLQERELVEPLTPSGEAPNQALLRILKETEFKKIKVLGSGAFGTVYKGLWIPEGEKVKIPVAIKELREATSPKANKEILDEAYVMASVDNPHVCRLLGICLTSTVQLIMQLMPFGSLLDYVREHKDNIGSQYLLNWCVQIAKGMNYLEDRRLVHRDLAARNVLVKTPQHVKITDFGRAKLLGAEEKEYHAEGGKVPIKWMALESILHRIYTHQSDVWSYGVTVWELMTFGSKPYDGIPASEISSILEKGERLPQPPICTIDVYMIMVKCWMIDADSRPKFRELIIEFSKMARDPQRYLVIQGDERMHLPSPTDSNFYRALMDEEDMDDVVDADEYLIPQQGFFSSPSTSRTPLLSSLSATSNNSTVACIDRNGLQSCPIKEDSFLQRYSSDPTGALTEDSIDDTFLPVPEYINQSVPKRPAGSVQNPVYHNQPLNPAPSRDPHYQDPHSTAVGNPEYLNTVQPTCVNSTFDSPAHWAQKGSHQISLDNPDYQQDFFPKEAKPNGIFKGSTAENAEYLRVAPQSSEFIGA
The experiment can be described thus: HTRF pEGFR/total EGFR in H1975 C797S cells. Format: cell-based. Conditions: ratio pEGFR/total EGFR, compound 3 hours. The procedure, abridged:
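Adhered H1975 C797S cells got compound for 3 h in duplicate at 0.1% DMSO final, then were lysed 30 min at room temperature. HTRF kits quantified phospho-EGFR (Tyr1068) and total EGFR (665/620 nm); results are pEGFR/total EGFR ratio as percent of 0 μM control.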
(In TR-FRET formats the signal depends on donor and acceptor labels being close together.)

Experiment [3] concerns the target T3, Phospho-EGFR (Tyr1068) in A431 cells (Homo sapiens, UniProt P00533).
T3 construct: endogenous in cells; host or cells: A431
The experiment can be described thus: HTRF pEGFR/total EGFR in A431 cells with EGF stimulation. The note with it: ratio pEGFR/total EGFR, compound 2.5 hours then 100 ng/ml EGF 30 mins. Type of experiment: cell-based. Summed up:
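A431 cells were plated at 20,000 per well, allowed 24 h to adhere, then given compound for 2.5 h (0.1% DMSO final). They were then stimulated with 100 ng/ml EGF for 30 min and lysed. HTRF measured Tyr1068-phospho and total EGFR at 665/620 nm, with pEGFR/total EGFR expressed as % of the 0 μM control.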

In experiment [4] the target is CtermHisTag-mEGFR Wild type (Homo sapiens, UniProt P00533). Briefly: biochemical.
Chain of CtermHisTag-mEGFR Wild type (P00533 whole entry): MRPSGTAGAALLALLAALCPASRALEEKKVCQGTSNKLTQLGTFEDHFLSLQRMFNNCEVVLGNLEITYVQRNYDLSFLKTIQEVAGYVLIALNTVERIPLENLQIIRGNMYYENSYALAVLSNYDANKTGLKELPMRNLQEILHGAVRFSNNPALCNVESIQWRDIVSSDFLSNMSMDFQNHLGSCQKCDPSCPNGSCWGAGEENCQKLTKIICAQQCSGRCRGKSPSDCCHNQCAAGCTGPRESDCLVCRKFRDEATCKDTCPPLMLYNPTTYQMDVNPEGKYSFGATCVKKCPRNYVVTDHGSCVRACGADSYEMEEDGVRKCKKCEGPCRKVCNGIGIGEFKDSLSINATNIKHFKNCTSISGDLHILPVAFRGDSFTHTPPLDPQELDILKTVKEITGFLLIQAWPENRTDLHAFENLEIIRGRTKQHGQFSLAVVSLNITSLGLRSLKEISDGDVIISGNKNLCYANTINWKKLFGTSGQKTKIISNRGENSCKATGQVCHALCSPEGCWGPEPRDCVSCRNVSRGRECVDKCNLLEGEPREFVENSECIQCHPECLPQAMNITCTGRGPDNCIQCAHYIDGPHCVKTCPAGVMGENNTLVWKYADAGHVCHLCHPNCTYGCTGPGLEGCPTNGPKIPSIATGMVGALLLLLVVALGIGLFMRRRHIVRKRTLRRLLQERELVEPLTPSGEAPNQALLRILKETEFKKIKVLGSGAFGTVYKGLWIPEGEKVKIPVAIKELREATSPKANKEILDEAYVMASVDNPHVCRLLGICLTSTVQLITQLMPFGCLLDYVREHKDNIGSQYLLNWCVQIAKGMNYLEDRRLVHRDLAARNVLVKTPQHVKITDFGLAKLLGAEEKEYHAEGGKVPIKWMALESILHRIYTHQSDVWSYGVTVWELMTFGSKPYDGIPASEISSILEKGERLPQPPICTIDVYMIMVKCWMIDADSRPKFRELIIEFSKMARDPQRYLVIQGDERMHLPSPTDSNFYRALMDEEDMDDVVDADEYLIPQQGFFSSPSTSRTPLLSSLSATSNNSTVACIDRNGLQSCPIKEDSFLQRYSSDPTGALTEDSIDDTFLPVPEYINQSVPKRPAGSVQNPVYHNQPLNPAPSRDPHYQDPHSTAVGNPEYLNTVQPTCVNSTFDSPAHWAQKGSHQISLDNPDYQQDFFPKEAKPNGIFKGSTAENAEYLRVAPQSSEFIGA

T3 sequence (P00533 25-1210): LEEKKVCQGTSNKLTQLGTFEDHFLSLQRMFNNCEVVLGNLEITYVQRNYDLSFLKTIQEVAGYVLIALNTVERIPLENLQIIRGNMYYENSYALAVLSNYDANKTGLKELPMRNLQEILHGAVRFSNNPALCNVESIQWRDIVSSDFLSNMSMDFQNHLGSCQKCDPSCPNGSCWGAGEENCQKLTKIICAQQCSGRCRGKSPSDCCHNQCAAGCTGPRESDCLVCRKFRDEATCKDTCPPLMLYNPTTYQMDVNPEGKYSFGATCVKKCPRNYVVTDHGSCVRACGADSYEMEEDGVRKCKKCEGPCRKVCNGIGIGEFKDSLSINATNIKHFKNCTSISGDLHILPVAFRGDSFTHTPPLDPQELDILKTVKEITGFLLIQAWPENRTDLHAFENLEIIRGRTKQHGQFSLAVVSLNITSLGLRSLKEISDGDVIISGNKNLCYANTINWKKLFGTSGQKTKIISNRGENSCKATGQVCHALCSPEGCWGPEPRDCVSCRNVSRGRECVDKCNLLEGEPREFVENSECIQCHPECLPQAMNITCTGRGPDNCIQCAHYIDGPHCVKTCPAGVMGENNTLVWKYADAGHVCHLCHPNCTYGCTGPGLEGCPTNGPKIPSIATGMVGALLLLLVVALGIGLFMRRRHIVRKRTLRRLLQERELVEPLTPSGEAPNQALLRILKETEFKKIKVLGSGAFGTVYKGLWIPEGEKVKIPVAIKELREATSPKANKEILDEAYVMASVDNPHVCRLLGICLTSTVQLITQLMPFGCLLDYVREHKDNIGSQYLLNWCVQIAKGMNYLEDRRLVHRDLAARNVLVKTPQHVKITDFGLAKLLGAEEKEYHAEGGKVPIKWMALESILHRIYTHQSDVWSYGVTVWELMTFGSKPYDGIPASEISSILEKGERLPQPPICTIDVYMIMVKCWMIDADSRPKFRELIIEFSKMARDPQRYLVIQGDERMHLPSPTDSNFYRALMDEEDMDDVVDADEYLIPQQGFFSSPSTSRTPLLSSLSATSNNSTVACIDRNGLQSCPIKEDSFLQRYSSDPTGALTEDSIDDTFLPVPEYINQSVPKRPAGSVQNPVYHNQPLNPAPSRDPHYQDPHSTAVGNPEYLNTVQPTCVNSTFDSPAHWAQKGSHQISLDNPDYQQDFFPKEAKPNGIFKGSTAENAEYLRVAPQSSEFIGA

For `C#Cc1cc(=O)n(C2CCCC2)c2nc(Nc3cccc4c3CN(C)C4)ncc12` [Example 184, 8-Cyclopentyl-5-ethynyl-2-[(2-methvl-1,3-dihydroisoindol-4-yl)amino]pyrido[2,3-d]pyrimidin-7-one], the half-inhibitory concentration (IC50) in experiment [1] is greater than 3 µM; in experiment [2], greater than 3 µM; in experiment [3] it was greater than 3 µM; in experiment [4], 1 to 10 µM.

In the case of `C#Cc1c(C)c(=O)n(Cc2cccnc2)c2nc(Nc3ccc(N4CCN(C)CC4)cc3)ncc12` [Example 115, 5-ethynyl-6-methyl-2-{[4-(4-methylpiperazin-1-yl)phenyl]amino}-8-(pyridin-3-ylmethyl)pyrido[2,3-d]pyrimidin-7-one], the IC50 was 0.5 to 1 µM in experiment [1], 1 to 3 µM in experiment [2], 1 to 3 µM in experiment [3] and less than 1 µM in experiment [4].

As for `C#Cc1cc(=O)n([C@H]2CC[C@@H](N(C)C(=O)CN(C)C)CC2)c2nc(Nc3ccccc3OC)ncc12` [Example 101, 2-(Dimethylamino)-N-methyl-N-[(1s,4s)-4-{5-ethynyl-2-[(2-methoxyphenyl)amino]-7-oxopyrido[2,3-d]pyrimidin-8-yl}cyclohexyl]acetamide], the concentration for half-maximal inhibition (IC50) in experiment [1] is greater than 3 µM; in experiment [2] it was greater than 3 µM; in experiment [3], greater than 3 µM; in experiment [4], greater than 10 µM.

Turning to `C#Cc1c(-c2ccccc2Cl)c(=O)n(C)c2nc(Nc3cccc(OC)c3)ncc12` [Example 131, 6-(2-chlorophenyl)-5-ethynyl-2-[(3-methoxyphenyl)amino]-8-methylpyrido[2,3-]pyrimidin-7-one], the half-maximal inhibitory concentration (IC50) in experiment [1] is 1 to 3 µM; in experiment [2], greater than 3 µM; in experiment [3], greater than 3 µM; in experiment [4] it was 1 to 10 µM.

For `C#Cc1c(-c2ccccc2Cl)c(=O)n(C)c2nc(Nc3ccc(N4CCN(C)CC4)cc3)ncc12` [Example 128, 6-(2-chlorophenyl)-5-ethynyl-8-methyl-2-{[4-(4-methylpiperazin-1-yl)phenyl]amino}pyrido[2,3-d]pyrimidin-7-one], the IC50 is 0.5 to 1 µM in experiment [1], greater than 3 µM in experiment [2], less than 0.5 µM in experiment [3] and less than 1 µM in experiment [4].

Turning to `C#Cc1cc(=O)n(-c2ccccc2)c2nc(Nc3ccc(N4CCC(N5CC(C(C)(C)O)C5)CC4)cc3)ncc12` [Example 40, 5-Ethynyl-2-[(4-{4-[3-(2-hydroxypropan-2-yl)azetidin-1-yl]piperidin-1-yl}phenyl)amino]-8-phenylpyrido[2,3-d]pyrimidin-7-one], the 50% inhibitory concentration (IC50) in experiment [1] is less than 0.5 µM; in experiment [2], less than 0.5 µM; in experiment [3], 1 to 3 µM; in experiment [4] it was less than 1 µM.

Turning to `C#Cc1cc(=O)n(C)c2nc(Nc3ccc(N4CCN(C)CC4)c(OC)c3)ncc12` [Example 208, 5-Ethynyl-2-((3-methoxy-4-(4-methylpiperazin-1-yl)phenyl)amino)-8-methylpyrido[2,3-d]pyrimidin-7(8H)-one], the IC50 is less than 0.5 µM in experiment [1], less than 0.5 µM in experiment [2], 1 to 3 µM in experiment [3] and less than 1 µM in experiment [4].

Take `C#Cc1cc(=O)n(C2CCCC2O)c2nc(Nc3ccc(N4CCN(C)CC4)cc3)ncc12` (centres unmarked) [Example 73, 5-Ethynyl-8-(2-hydroxycyclopentyl)-2-((4-(4-methylpiperazin-1-yl)phenyl)amino)pyrido[2,3-d]pyrimidin-7(8H)-one]: the concentration for half-maximal inhibition (IC50) in experiment [1] is 0.5 to 1 µM; in experiment [2], 1 to 3 µM; in experiment [3] it was greater than 3 µM; in experiment [4], 1 to 10 µM.

Turning to `C#Cc1cc(=O)n(-c2ccc(NC(=O)C3CC3)cc2)c2nc(Nc3ccccc3OC)ncc12` [Example 66, N-(4-(5-Ethynyl-2-((2-methoxyphenyl)amino)-7-oxopyrido[2,3-d]pyrimidin-8(7H)-yl)phenyl)cyclopropanecarboxamide], the IC50 in experiment [1] is greater than 3 µM; in experiment [2], greater than 3 µM; in experiment [3], greater than 3 µM; in experiment [4], 1 to 10 µM.

In the case of `C#Cc1cc(=O)n2c3nc(ncc13)Nc1ccc(N3CCN(C)CC3)c(c1)OC/C=C\C2` [Example 188, (Z)-1^5-ethynyl-3^4-(4-methylpiperazin-1-yl)-1^7,1^8-dihydro-4-oxa-2-aza-1(2,8)-pyrido[2,3-d]pyrimidina-3(1,3)-benzenacyclooctaphan-6-en-1^7-one], the concentration for half-maximal inhibition (IC50) in experiment [1] was less than 0.5 µM; in experiment [2], less than 0.5 µM; in experiment [3], 0.5 to 1 µM; in experiment [4], less than 1 µM.

For the compound `C#Cc1cc(=O)n(C)c2nc(Nc3ccc(N4CCN(C)CC4)c(NC(=O)CC4CCCC4)c3)ncc12` [Example 217, 2-Cyclopentyl-N-(5-((5-ethynyl-8-methyl-7-oxo-7,8-dihydropyrido[2,3-d]pyrimidin-2-yl)amino)-2-(4-methylpiperazin-1-yl)phenyl)acetamide], the IC50 in experiment [1] is less than 0.5 µM; in experiment [2], less than 0.5 µM; in experiment [3], 1 to 3 µM; in experiment [4] it was less than 1 µM.

As to `C#Cc1cc(=O)n(C)c2nc(Nc3ccc(N4CCN(C)CC4)c(OCCc4ccccc4)c3)ncc12` [Example 214, 5-Ethynyl-8-methyl-2-((4-(4-methylpiperazin-1-yl)-3-phenethoxyphenyl)amino)pyrido[2,3-d]pyrimidin-7(8H)-one], the half-maximal inhibitory concentration (IC50) was less than 0.5 µM in experiment [1], less than 0.5 µM in experiment [2], 1 to 3 µM in experiment [3] and less than 1 µM in experiment [4].

As for `C#Cc1c(C)c(=O)n(Cc2ccnn2C)c2nc(Nc3ccc(N4CCN(C)CC4)cc3)ncc12` [Example 112, 5-ethynyl-6-methyl-2-{[4-(4-methylpiperazin-1-yl)phenyl]amino}-8-[(2-methylpyrazol-3-yl)methyl]pyrido[2,3-d]pyrimidin-7-one], the IC50 is 1 to 3 µM in experiment [1], 1 to 3 µM in experiment [2], greater than 3 µM in experiment [3] and 1 to 10 µM in experiment [4].

Take `C#Cc1cc(=O)n(Cc2ccn(C)n2)c2nc(Nc3ccc(N4CCN(C)CC4)cc3)ncc12` [Example 118, 5-ethynyl-2-{[4-(4-methylpiperazin-1-yl)phenyl]amino}-8-[(1-methylpyrazol-3-yl)methyl]pyrido[2,3-d]pyrimidin-7-one]: the concentration for half-maximal inhibition (IC50) in experiment [1] was less than 0.5 µM; in experiment [2] it was less than 0.5 µM; in experiment [3], 1 to 3 µM; in experiment [4] it was less than 1 µM.

In the case of `C#Cc1cc(=O)n(C)c2nc(Nc3ccc(N4CCN(C)CC4)c(OC4CCCC4)c3)ncc12` [Example 215, 2-((3-(Cyclopentyloxy)-4-(4-methylpiperazin-1-yl)phenyl)amino)-5-ethynyl-8-methylpyrido[2,3-d]pyrimidin-7(8H)-one], the concentration for half-maximal inhibition (IC50) is less than 0.5 µM in experiment [1], less than 0.5 µM in experiment [2], 1 to 3 µM in experiment [3] and less than 1 µM in experiment [4].

Consider `C#Cc1cc(=O)n(CC2CCOC2)c2nc(Nc3ccc(N4CCN(C)CC4)cc3)ncc12` (centres unmarked) [Example 70, 5-Ethynyl-2-((4-(4-methylpiperazin-1-yl)phenyl)amino)-8-((tetrahydrofuran-3-yl)methyl)pyrido[2,3-d]pyrimidin-7(8H)-one], for which the 50% inhibitory concentration (IC50) was less than 0.5 µM in experiment [1], less than 0.5 µM in experiment [2], greater than 3 µM in experiment [3] and less than 1 µM in experiment [4].

With `C#Cc1cc(=O)n(-c2cccc(NC(=O)COC(C)=O)c2)c2nc(Nc3ccccc3OC)ncc12` [Example 59, 2-((3-(5-Ethynyl-2-((2-methoxyphenyl)amino)-7-oxopyrido[2,3-d]pyrimidin-8(7H)-yl)phenyl)amino)-2-oxoethyl acetate], the half-maximal inhibitory concentration (IC50) is greater than 3 µM in experiment [1], greater than 3 µM in experiment [2], greater than 3 µM in experiment [3] and 1 to 10 µM in experiment [4].

In the case of `C#Cc1cc(=O)n(-c2ccccc2)c2nc(Nc3ccc(N4CCNCC4)cc3)ncc12` [Example 14, 5-Ethynyl-8-phenyl-2-{[4-(piperazin-1-yl)phenyl]amino}pyrido[2,3-d]pyrimidin-7-one], the half-inhibitory concentration (IC50) in experiment [1] was less than 0.5 µM; in experiment [2], less than 0.5 µM; in experiment [3], greater than 3 µM; in experiment [4] it was less than 1 µM.

Consider `C#Cc1cc(=O)n(C2CCCC2)c2nc(Nc3cccc(CN4CCC(CS(C)(=O)=O)C4)c3)ncc12` (centres unmarked) [Example 182], for which the IC50 was greater than 3 µM in experiment [1], greater than 3 µM in experiment [2], greater than 3 µM in experiment [3] and greater than 10 µM in experiment [4].

For the compound `C#Cc1cc(=O)n(C)c2nc(Nc3ccc(N4CCN(C)CC4)c(C(=O)NCC4CCCC4)c3)ncc12` [Example 221, N-(Cyclopentylmethyl)-5-({5-ethynyl-8-methyl-7-oxopyrido[2,3-d]pyrimidin-2-yl}amino)-2-(4-methylpiperazin-1-yl)benzamide], the IC50 in experiment [1] is 0.5 to 1 µM; in experiment [2] it was 1 to 3 µM; in experiment [3], greater than 3 µM; in experiment [4] it was 1 to 10 µM.
